Experimental data published in patent publication US20070281960A1, “Anti-Histaminic Composition” (priority 2004, published 2007).

What was measured:
[1] = test system: human mast cells; conditions: in vitro; cited from earlier work
[2] = Compatibility of desloratadine with common excipients; type: physicochemical; conditions: lactose, magnesium stearate, microcrystalline stearate; degrades and changes to a pink colour
Description: Therefore, extreme caution needs to be taken when formulating desloratadine with various excipients. […] This decomposition is further accelerated under high temperature and humid conditions.

For `Clc1ccc2c(c1)CCc1cccnc1C2=C1CCNCC1` [Desloratadine, 8-chloro-6,11-dihydro-11-(4-piperidylidene)-5-H-benzo [5,6] cyclohepta [1,2-b] pyridine], the “histamine release from human mast cells” value [1] is given as “inhibits histamine release” and the “compatibility with common excipients” value [2] is given as “incompatible”.
